Measured values published in ChEMBL document CHEMBL5316318, “Structural Modification and Pharmacological Evaluation of Substituted Quinoline-5,8-diones as Potent NSD2 Inhibitors” (J Med Chem, 2023).
Activity calls are given as the source filed them. No cut-off for these calls is given here.

Legend:
[1] = tested on: U-937; assay: Antiproliferative activity against human U-937 cells harboring wild type NSD2 assessed as inhibition of cell growth incubated for 6 days by CCK-8 assay; type: functional, cell-based; conditions: U-937, 144 h
[2] = tested on: KMS-11; assay: Antiproliferative activity against human KMS-11 cells assessed as inhibition of cell growth incubated for 6 days by CCK-8 assay; type: functional, cell-based; conditions: KMS-11, 144 h
[3] = tested on: RS4-11; assay: Antiproliferative activity against human RS4-11 cells harboring NSD2 E1099K mutant assessed as inhibition of cell growth incubated for 6 days by CCK-8 assay; type: functional, cell-based; conditions: RS4-11, 144 h
[4] = tested on: KMS-11; assay: Induction of apoptosis in human KMS-11 cells assessed as live cells at 0.2 uM incubated for 72 hrs by Annexin V-FITC/PI staining based flow cytometry analysis (reference value: 83.1%); type: functional
[5] = Cmax in ICR mouse at 3 mg/kg, po measured for 24 hrs by LC-MS/MS analysis; type: ADME, organism-based; design: dose 3 mg/kg, time 24 hrs, route po; conditions: in vivo
[6] = molecular target: Neural cell adhesion molecule 1 (Homo sapiens) (UniProt P13591); assay: Inhibition of NCAM1 transcriptional activation in human KMS-11 cells assessed as reduction in H3K36me2 level in promoter region by ChIP-qPCR analysis; type: cell-based
Chain of Neural cell adhesion molecule 1 (Homo sapiens) (P13591 whole entry): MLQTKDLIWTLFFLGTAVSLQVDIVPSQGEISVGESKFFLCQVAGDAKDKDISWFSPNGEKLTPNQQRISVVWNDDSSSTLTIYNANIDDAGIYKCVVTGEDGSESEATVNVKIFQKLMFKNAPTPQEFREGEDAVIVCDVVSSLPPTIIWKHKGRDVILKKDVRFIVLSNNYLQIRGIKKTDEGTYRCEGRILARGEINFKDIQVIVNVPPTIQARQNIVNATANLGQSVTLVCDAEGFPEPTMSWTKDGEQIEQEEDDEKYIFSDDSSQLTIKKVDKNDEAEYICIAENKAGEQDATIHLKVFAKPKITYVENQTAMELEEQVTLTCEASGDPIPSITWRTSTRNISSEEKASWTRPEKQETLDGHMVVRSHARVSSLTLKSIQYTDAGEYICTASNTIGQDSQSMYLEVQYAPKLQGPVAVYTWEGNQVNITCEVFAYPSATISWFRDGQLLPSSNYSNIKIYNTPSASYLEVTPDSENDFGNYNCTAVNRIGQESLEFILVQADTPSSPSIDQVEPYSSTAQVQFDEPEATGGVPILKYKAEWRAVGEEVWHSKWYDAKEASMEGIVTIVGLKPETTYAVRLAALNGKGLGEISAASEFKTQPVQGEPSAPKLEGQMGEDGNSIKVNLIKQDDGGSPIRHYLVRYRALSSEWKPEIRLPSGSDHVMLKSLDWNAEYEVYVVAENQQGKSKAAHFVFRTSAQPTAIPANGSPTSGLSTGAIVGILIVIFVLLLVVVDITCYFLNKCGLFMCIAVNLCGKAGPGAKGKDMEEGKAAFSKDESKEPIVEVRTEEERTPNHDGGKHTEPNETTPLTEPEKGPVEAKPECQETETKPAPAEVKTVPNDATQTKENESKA

[7] = tested on: KMS-11; assay: Induction of apoptosis in human KMS-11 cells assessed as downregulation of BCL-XL protein expression at 0.2 to 0.8 uM by Western blot analysis; type: functional, cell-based; conditions: dose 0.2-0.8 µM
[8] = AUClast in ICR mouse at 1 mg/kg, iv measured for 24 hrs by LC-MS/MS analysis; type: ADME, organism-based; design: dose 1 mg/kg, time 24 hrs, route iv; conditions: in vivo
[9] = molecular target: Histone-lysine N-methyltransferase NSD3 (Homo sapiens, UniProt Q9BZ95); assay: Inhibition of NSD3 (unknown origin)
Chain of Histone-lysine N-methyltransferase NSD3 (Q9BZ95 whole entry, the tested form may be a part): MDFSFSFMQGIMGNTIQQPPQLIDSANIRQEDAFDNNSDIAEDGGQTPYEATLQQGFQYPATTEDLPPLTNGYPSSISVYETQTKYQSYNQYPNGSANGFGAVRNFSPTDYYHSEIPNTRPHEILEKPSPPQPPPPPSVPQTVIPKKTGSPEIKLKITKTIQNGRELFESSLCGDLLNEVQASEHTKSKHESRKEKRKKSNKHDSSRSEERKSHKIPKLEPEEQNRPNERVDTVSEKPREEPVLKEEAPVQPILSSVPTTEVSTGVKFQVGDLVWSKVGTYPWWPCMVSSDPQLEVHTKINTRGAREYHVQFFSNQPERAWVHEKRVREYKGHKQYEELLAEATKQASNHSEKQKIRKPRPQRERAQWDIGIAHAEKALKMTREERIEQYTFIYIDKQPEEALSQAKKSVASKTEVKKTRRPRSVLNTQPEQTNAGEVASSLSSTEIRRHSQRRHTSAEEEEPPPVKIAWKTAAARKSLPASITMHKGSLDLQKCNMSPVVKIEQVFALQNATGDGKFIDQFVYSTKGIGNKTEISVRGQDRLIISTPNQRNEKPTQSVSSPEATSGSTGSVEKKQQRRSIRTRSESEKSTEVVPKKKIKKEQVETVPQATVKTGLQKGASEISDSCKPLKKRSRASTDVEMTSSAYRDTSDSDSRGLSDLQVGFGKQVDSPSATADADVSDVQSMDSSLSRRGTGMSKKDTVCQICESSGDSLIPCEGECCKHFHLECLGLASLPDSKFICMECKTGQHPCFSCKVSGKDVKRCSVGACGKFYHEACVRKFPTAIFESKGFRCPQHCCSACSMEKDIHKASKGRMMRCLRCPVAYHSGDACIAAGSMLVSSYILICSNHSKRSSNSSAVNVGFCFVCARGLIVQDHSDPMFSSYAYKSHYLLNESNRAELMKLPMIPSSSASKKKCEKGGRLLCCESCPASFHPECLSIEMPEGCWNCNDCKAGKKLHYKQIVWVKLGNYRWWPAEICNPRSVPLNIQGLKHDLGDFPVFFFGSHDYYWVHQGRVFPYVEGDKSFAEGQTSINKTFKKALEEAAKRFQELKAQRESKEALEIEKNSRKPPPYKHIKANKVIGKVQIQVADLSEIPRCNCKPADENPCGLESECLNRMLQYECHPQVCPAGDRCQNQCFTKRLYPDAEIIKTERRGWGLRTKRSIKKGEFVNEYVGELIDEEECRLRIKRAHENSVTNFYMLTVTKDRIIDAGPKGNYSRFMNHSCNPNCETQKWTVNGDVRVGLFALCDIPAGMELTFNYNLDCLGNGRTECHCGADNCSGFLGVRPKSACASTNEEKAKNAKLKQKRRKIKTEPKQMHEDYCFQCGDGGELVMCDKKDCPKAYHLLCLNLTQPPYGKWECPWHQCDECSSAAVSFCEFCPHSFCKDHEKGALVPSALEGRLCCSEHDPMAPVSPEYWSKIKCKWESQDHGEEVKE

[10] = molecular target: Histone-lysine N-methyltransferase NSD2 (Homo sapiens) (UniProt O96028); assay: Binding affinity to human recombinant NSD2 (941 to 1240 residues) at 200 uM by saturation transfer difference based NMR analysis
[11] = tested on: CMK; assay: Antiproliferative activity against human CMK cells harboring wild type NSD2 assessed as inhibition of cell growth incubated for 6 days by CCK-8 assay; type: functional, cell-based; conditions: 144 h
[12] = Toxicity in SCID mouse xenografted with human KMS-11 cells assessed as body weight loss at 75 to 150 mg/kg, po administered daily for 21 days and measured every 3 days; type: organism-based; conditions: in vivo, 504 h, dose 75-150 mg/kg, time 21 day
[13] = Apparent permeability coefficient, Papp in MDCK cells; type: ADME, cell-based, Canis lupus familiaris; conditions: dog
[14] = molecular target: Protein arginine N-methyltransferase 5 (Homo sapiens, UniProt O14744); assay: Inhibition of PRMT5 (unknown origin) by AlphaLISA assay
Chain of Protein arginine N-methyltransferase 5 (O14744 whole entry): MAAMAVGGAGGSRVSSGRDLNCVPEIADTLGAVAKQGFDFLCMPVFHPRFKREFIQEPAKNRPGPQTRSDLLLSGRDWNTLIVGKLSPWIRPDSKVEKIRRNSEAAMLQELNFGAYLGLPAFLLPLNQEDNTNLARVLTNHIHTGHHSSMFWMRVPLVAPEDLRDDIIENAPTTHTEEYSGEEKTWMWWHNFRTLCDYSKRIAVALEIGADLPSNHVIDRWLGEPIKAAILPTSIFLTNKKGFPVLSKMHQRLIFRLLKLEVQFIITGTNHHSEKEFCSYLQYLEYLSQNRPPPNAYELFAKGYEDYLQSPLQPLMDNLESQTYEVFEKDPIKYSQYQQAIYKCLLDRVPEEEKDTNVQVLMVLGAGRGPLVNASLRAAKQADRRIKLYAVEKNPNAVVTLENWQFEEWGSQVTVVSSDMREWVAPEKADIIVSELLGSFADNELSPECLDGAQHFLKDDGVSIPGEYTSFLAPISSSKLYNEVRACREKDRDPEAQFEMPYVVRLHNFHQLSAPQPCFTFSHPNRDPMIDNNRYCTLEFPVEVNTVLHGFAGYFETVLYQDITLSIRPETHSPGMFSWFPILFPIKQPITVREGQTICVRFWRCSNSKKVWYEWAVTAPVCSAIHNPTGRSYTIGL

[15] = tested on: MOLT-4; assay: Antiproliferative activity against human MOLT-4 cells harboring wild type NSD2 assessed as inhibition of cell growth incubated for 6 days by CCK-8 assay; type: functional, cell-based; conditions: MOLT-4, 144 h
[16] = molecular target: Histone-arginine methyltransferase CARM1 (Homo sapiens, UniProt Q86X55); assay: Inhibition of PRMT4 (unknown origin) by AlphaLISA assay
Chain of Histone-arginine methyltransferase CARM1 (Q86X55 whole entry): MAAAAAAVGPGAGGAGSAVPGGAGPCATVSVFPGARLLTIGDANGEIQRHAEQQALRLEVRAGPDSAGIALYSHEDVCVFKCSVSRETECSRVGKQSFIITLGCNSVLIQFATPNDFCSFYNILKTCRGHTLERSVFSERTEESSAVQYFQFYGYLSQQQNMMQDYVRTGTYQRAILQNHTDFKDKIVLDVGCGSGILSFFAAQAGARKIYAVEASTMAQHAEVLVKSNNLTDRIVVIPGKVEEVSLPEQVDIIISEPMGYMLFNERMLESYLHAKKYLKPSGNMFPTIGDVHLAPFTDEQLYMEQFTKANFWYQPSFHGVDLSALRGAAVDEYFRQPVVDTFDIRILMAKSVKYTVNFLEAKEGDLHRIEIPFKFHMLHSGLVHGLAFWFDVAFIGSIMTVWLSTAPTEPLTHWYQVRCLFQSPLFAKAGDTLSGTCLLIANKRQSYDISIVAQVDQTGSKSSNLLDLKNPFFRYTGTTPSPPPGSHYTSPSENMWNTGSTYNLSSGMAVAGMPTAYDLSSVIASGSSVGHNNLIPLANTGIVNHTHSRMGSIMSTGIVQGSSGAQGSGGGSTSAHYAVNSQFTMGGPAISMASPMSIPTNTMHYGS

[17] = tested on: KMS-11; assay: Antitumor activity against human KMS-11 cells xenografted in SCID mouse assessed as tumor growth inhibition at 75 mg/kg, po administered daily for 21 days and measured every 3 days relative to control; type: functional; conditions: KMS-11, 504 h, time 21 day, read-out: TGI
[18] = molecular target: Ras-related protein R-Ras2 (Homo sapiens) (UniProt P62070); assay: Inhibition of RRAS2 transcriptional activation in human KMS-11 cells assessed as reduction in H3K36me2 level in promoter region by ChIP-qPCR analysis; type: cell-based
Chain of Ras-related protein R-Ras2 (Homo sapiens) (P62070 whole entry): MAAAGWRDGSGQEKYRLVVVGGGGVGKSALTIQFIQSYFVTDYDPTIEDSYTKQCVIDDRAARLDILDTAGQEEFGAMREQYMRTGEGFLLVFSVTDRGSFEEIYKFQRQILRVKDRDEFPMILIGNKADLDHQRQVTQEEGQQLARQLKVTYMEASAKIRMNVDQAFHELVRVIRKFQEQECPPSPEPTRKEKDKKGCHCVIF

[19] = tested on: KMS-11; assay: Modulation of FoxO signaling pathway in human KMS-11 cells at 1 uM incubated for 48 hrs by RNA-Seq analysis; type: cell-based; conditions: filed as modulator
[20] = tested on: HL-60; assay: Antiproliferative activity against human HL-60 cells harboring wild type NSD2 assessed as inhibition of cell growth incubated for 6 days by CCK-8 assay; type: functional, cell-based; conditions: HL-60, 144 h
[21] = molecular target: T1, Histone-lysine N-methyltransferase NSD2 (Homo sapiens, UniProt O96028); assay: Inhibition of recombinant human NSD2 (941 to 1240 residues) using SAM as substrate incubated for 3 hrs by AlphaLISA assay
T1 sequence (O96028 whole entry): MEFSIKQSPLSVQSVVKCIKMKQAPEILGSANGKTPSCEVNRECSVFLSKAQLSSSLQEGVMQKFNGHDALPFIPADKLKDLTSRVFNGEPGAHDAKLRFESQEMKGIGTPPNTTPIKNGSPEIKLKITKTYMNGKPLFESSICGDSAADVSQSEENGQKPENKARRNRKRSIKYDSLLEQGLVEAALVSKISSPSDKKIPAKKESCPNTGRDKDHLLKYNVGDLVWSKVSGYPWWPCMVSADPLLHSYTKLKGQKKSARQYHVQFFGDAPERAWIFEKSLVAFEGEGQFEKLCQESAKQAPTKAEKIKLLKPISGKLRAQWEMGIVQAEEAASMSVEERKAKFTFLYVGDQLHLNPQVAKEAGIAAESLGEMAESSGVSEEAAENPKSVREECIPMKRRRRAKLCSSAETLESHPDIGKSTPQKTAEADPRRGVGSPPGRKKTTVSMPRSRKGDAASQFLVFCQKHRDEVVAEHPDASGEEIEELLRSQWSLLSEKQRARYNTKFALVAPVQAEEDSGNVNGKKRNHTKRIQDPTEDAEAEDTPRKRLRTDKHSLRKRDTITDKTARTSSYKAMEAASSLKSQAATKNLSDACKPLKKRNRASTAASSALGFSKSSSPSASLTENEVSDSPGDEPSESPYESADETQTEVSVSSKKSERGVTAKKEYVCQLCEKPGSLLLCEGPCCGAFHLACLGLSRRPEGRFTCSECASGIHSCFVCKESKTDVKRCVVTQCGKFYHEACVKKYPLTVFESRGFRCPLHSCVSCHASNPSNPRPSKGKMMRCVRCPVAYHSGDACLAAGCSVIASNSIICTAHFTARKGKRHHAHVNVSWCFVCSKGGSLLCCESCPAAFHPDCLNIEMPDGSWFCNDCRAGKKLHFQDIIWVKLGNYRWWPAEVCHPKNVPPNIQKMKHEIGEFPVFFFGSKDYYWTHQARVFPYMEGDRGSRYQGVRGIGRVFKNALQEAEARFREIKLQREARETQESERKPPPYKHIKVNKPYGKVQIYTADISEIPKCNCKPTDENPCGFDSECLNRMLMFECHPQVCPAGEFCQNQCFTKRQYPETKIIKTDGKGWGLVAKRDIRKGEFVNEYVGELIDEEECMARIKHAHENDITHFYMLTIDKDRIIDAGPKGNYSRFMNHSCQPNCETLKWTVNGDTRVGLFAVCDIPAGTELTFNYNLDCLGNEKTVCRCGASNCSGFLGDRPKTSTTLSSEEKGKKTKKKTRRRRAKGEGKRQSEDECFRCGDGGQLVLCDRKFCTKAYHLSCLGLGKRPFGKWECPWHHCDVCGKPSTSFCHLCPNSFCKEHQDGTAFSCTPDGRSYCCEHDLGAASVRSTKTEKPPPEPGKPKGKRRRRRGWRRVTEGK

## CC#CC(=O)NC12CC(NC3=C(Cl)C(=O)c4ncccc4C3=O)(C1)C2
[1]
  IC50: 4900 nM
[2]
  IC50: 270 nM
[3]
  IC50: 304 nM
[4]
  Activity: 81.3%
[5]
  Cmax: 4780 ng/mL
[6]
  inhibition: Active
[7]
  Activity: Active
[8]
  AUC(0-t) at 24 h: 5180 ng·h/mL
[9]
  IC50: 750 nM
[10]
  Activity: Active
[11]
  IC50: 2600 nM
[12]
  Activity: Non-Toxic
[13]
  Papp: 45 ×10⁻⁶ cm/s
[14]
  IC50: > 10000 nM
[15]
  IC50: 1230 nM
[16]
  IC50: > 10000 nM
[17]
  inhibition in vivo at 75 mg/kg: 56%
[18]
  inhibition: Active
[19]
  Activity: Active
[20]
  IC50: 2660 nM
[21]
  IC50: 230 nM
